Measurements reported in ChEMBL document CHEMBL1129844, “Mechanism-based inactivation of l-pipecolate oxidase by a sulfur-containing substrate analog, 5-thia-l-pipecolic acid” (Bioorg Med Chem Lett, 1997).
Values joined by “and” are separate entries in the source; they are usually repeats but may differ in a detail not shown here. Identical values can stand only once. Blank lines part the entries; values can stand above or below the molecule they belong to.

Key:
[1] = molecular target: T1, Peroxisomal sarcosine oxidase (Homo sapiens) (UniProt Q9P0Z9); test: Kinetic parameter was evaluated for L-pipecolate oxidase; settings: Cercopithecidae
T1 sequence (whole entry): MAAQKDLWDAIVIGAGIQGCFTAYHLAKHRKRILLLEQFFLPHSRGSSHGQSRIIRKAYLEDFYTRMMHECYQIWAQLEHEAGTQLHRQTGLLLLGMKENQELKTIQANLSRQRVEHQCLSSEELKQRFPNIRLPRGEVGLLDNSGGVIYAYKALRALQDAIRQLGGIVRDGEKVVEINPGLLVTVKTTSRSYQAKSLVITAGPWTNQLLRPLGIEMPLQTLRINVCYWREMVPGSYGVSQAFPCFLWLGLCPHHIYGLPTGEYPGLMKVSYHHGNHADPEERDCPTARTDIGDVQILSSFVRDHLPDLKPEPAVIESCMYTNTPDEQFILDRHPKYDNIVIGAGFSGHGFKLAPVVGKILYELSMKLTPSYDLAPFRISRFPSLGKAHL

[2] = molecular target: T1, Peroxisomal sarcosine oxidase (Homo sapiens); test: Kinetic parameter was evaluated for L-pipecolate oxidase in Frozen Rhesus monkey liver ith L-PA as substrate; type: tissue-based; settings: Cercopithecidae, target entry is the homologue from another species
[3] = molecular target: T1, Peroxisomal sarcosine oxidase (Homo sapiens); test: (§1) Kinetic parameter was evaluated for L-pipecolate oxidase using the peroxidase-coupled assay; settings: Cercopithecidae
[4] = molecular target: T2, Peroxisomal sarcosine oxidase (Homo sapiens, UniProt Q9P0Z9); test: Time and concentration dependent inhibition of L-pipecolate oxidase was determined by the compound; parameters: species or system Cercopithecidae
T2 sequence (Q9P0Z9 whole entry): T1 sequence (whole entry)

[5] = Partition ratio was calculated from the ratio of kcat/kinact
[6] = molecular target: T1, Peroxisomal sarcosine oxidase (Homo sapiens); test: Kinetic parameter was evaluated for L-pipecolate oxidase was expressed as K observed; settings: Cercopithecidae
[7] = substrate: O=C(O)[C@@H]1CCSCN1; test: as §1; settings: Cercopithecidae

K inact [1]: 0.06 min⁻¹
k cat [2]: 0.13 s⁻¹
k cat [3]: 0.085 s⁻¹
Ki [4]: 36 mM
Ratio [5]: 85
k obs [6]: 4.01e-05 s⁻¹ and 4.26e-05 s⁻¹
Molecule: O=C(O)[C@@H]1CCSCN1

B1: Peroxisomal sarcosine oxidase (Homo sapiens), Q9P0Z9 (protein)
chain: T1 sequence (whole entry)
Km [7]: 940 µM
